Test results as given in patent publication US20240189291A1, “Prevention And Treatment Of Atrial Fibrillation/Flutter With Gamma-Ketoaldehyde Scavengers” (Vanderbilt University, priority 2016, published 2024).
Several values for one entry are separate records, joined by “and”; a condition that tells them apart may be missing. Equal entries are not always repeated. Entries after “also recorded” stand apart in the source; their conditions may differ. Where two headings read alike, the source gives them in different places.

Key:
[1] = tested on: atrial HL-1 cells; assay: Rapid pacing of cultured atrial HL-1 cells (cellular model simulating AF); assay type: cell-based
Source text: Protein oligomers and IsoLGs in a cellular model simulating AF. […] Moreover, exposure of unpaced cells to a physiologic concentration of IsoLGs caused cytosolic PAO production, similar to that observed with rapid pacing (FIG. 4, top panels).

[2] = tested on: hypertensive (ang II) mice; assay: Murine model of ang II-mediated hypertension with inducible AF; assay type: in vivo; conditions: for AF burden / AF susceptibility (total inducible AF): 2-HOBA and 4-HOBA 1G/L in drinking water
Source text: Experimental hypertension: Evidence for IsoLGs in AF susceptibility. Oxidative stress and PAO burden in human atrium are linked to HTN. […] The present inventors have determined that IsoLGs are mediators for AF susceptibility in HTN using a murine model (2 wk mini-pump infusion of angiotensin II [ang II]), in which mice develop sustained HTN and inducible AF. […] Importantly, mass spectrometry data have confirmed this finding (FIG. 5B), with a striking 100 fold increase in atrial adduct formation during HTN (2-3 fold greater increase than that seen in Alzheimer's brain). In addition, PAOs accumulated in the atria of hypertensive compared to control mice (FIGS. 5C and D). […] As expected, hypertensive mice developed inducible AF compared to control (FIG. 7). […] Normalization of BP in ang II-treated mice with hydralazine/HCTZ prevented AF susceptibility, while mechanical stretch of atrial myocytes generated both LG adducts (FIG. 9) and PAOs (not shown), signifying a critical role of atriomyocyte stretch. The AF substrate was reversible by 2 wks after stopping ang II (85% reduction in total AF burden), with partial normalization of BP (74%; n=13, data not shown). Of note, 2-HOBA had no effects on any ECG parameters in HTN mice.

[3] = tested on: mice fed a high-fat diet (HFD); assay: Mouse model of diet-induced obesity (DIO) with inducible AF; assay type: in vivo; conditions: 12 weeks, co-treatment
Source text: Experimental obesity: Evidence for IsoLGs in AF susceptibility. Given that obesity is also linked to inflammation and oxidative stress, we have begun studies to investigate the role of IsoLGs in a mouse model of diet-induced obesity (DIO). […] Thus, in the early stages of both HTN and obesity, the present inventors show a role for IsoLGs in the AF substrate. In both HTN and obesity, AF was inducible in the absence of fibrosis, with reversibility in HTN. These findings imply that IsoLGs constitute an early pathologic target, and that their inhibition could potentially prevent the development of AF. In the proposed studies, we will confirm the critical role of IsoLGs using rigorous experimental approaches. For these studies, we use well-characterized murine models of HTN and obesity described above and routinely employed.
The following data are for 12 week-treated animals.

[4] = tested on: hypertensive (ang II) mice; conditions: ang II-mediated HTN in mice, earlier work (Kirabo and colleagues), cited from earlier work
[5] = tested on: IsoLGs; conditions: cited from earlier work
[6] = tested on: ROS; conditions: cited from earlier work
[7] = biological target: COX1 (Homo sapiens, UniProt P23219); conditions: cited from earlier work
Chain of COX1 (P23219 24-599): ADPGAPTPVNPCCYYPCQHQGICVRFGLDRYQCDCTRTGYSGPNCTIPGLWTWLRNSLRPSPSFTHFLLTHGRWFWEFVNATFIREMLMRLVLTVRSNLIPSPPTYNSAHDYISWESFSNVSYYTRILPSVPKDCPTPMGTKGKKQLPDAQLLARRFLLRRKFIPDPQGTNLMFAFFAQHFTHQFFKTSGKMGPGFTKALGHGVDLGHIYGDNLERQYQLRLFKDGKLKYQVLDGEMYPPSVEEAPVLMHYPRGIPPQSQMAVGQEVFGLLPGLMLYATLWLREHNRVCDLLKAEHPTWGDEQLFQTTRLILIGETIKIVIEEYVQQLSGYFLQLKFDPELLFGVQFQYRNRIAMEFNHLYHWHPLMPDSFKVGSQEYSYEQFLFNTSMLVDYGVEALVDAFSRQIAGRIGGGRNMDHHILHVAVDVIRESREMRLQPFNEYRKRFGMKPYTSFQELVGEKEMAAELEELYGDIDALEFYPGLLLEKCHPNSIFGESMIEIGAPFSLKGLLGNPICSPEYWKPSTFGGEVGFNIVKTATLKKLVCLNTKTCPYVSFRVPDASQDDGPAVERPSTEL

[8] = biological target: T1, COX2 (Homo sapiens, UniProt P35354); conditions: cited from earlier work
T1 sequence (P35354 18-604): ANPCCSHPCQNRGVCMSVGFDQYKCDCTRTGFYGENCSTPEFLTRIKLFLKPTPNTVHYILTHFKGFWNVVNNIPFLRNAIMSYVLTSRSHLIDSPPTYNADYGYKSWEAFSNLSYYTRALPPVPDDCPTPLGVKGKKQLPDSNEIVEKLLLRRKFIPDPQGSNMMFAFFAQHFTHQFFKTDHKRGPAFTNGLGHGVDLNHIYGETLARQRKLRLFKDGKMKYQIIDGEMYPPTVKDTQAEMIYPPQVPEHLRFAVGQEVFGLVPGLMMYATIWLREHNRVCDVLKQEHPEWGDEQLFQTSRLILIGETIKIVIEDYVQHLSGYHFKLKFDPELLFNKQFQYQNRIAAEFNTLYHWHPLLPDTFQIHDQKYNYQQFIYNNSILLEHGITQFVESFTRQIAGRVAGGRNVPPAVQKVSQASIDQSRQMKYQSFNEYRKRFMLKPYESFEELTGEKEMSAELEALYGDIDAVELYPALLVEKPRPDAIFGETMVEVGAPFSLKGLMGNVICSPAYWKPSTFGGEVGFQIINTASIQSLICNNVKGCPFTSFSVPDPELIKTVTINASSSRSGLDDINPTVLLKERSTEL

[9] = tested on: mouse model of Alzheimer's disease; conditions: cited from earlier work
[10] = in vitro studies, in vivo studies in mice, pre-clinical toxicology studies; cited from earlier work
[11] = tested on: atrial HL-1 cells; assay: Cytotoxicity of ANP oligomers to atrial HL-1 cells (ATP production); assay type: cell-based; conditions: peptide oligomers, 24 hr exposure; listed as ANP oligomers
Experimental: Mutant ANP is highly fibrillogenic, generating cytotoxic PAOs. To compare oligomer formation between WT and mutant ANP, Western analysis was performed on peptides allowed to oligomerize at 23° C. for variable time points. […] For amyloid β1-42, oligomer toxicity is a transient, time-dependent phenomenon, in the progression from monomers to PAOs to fibrils. To investigate this process for WT and mutant ANP, peptides incubated in vitro to generate oligomers over different time periods were incubated with atrial HL-1 cells for 24 hr. For WT ANP, proteotoxicity (manifested by decreased cellular ATP production) was maximal for PAOs generated during a 2 wk incubation, while for mutant ANP, the time point of maximal oligomer cytotoxicity occurred much earlier, within ˜3 d (FIG. 14). Cytotoxicity was confirmed by measuring cellular oxygen consumption rate using extracellular flux analysis (Seahorse Bioscience XFE96). Thus, oligomers formed by both WT and mutant ANP cause atrial myocyte dysfunction, as evidenced by reduced cardiomyocyte ATP production, with proteotoxicity occurring earlier for mutant compared to WT ANP, consistent with accelerated oligomer formation.

[12] = rapidly paced atrial HL-1 cells in presence of compound
[13] = ang II-treated hypertensive mice, 1G/L in drinking water
[14] = ang II-treated hypertensive mice

Question: For NCc1ccccc1O [2-HOBA, 2-hydroxybenzylamine], which PAO formation [1, 12] is on record?
Answer: virtually eliminated and 2-HOBA prevents

Question: And the “myocyte stress response (transcriptional upregulation of Nppb and Hspa1a)” value [1, 12]?
Answer: blunted

Question: What about the isoLG adducts ([1]; rapidly-beating atrial cell model) of the same compound?
Answer: 2-HOBA prevents

Question: What about the ECG parameters ([2]; HTN mice) of the same compound?
Answer: no effects

Question: What about the “atrial IsoLG adducts” value [2, 13] of the same compound?
Answer: prevents and markedly reduced and 2-HOBA reduces

Question: And the “atrial PAO formation” value [2, 13]?
Answer: prevents and markedly reduced and 2-HOBA reduces

Question: What about the “AF burden / AF susceptibility (total inducible AF)” value [2, 14] of the same compound?
Answer: suppressed and markedly reduced and 2-HOBA reduces

Question: And the “AF burden (total inducible AF)” value [3]?
Answer: suppressed and markedly suppressed and 2-HOBA reduces

Question: What about the “blood pressure / antihypertensive effect” value [4] of the same compound?
Answer: effectively lowered; also recorded: prominent antihypertensive effect

Question: And the “blood pressure / antihypertensive effect” value ([4]; listed as salicylamine)?
Answer: remarkable therapeutic benefit

Question: And the dicarbonyl scavenging activity [5]?
Answer: can also scavenge other injurious lipid dicarbonyl compounds such as MDA

Question: And the “rate of reaction with IsoLGs compared to IsoLG binding to the ε-amine of lysine” value [5]?
Answer: much more rapid rate (by several orders of magnitude)

Question: And the ROS levels [6]?
Answer: does not reduce ROS levels significantly

Question: And the “concentrations of O2·− or F2-Isoprostanes” value ([6]; during in vitro oxidation)?
Answer: do not affect

Question: What about the “inhibition of COX1 enzyme” value [7] of the same compound?
Answer: does not inhibit

Question: And the “inhibition of COX2 enzyme” value [8]?
Answer: does not inhibit

Question: And the “development of cognitive impairment / therapeutic benefit” value [9]?
Answer: prevent

Question: And the “development of cognitive impairment / therapeutic benefit” value ([9]; listed as salicylamine)?
Answer: remarkable therapeutic benefit

Question: What about the safety profile [10] of the same compound?
Answer: excellent safety profile

Question: Which “AF burden / AF susceptibility (total inducible AF)” value [2, 14] does the source give for NCc1ccc(O)cc1 [4-HOBA, reference compound] here?
Answer: had no effect

Question: And the “AF burden (total inducible AF)” value [3]?
Answer: had no effect; also recorded: did not

Question: And the dicarbonyl scavenging activity [5]?
Answer: cannot scavenge dicarbonyls

Question: Which “cytotoxicity (ATP production by atrial HL-1 cells)” value [11] does the source give for “WT ANP: wild-type atrial natriuretic peptide (28 amino acids), incubated to form oligomers” here?
Answer: reduced ATP production; also recorded: cytotoxic

Question: Which results are given for “hydralazine/hydrocholorothiazide [hydralazine/HCTZ, reference compound]”?
Answer: AF burden / AF susceptibility (total inducible AF) [2, 14]: prevented; blood pressure (BP) ([2]; ang II-treated mice): Normalization
